Results on four compounds are retold here after patent US6130248A, “Tricarboxylic acid-containing oxyalkyl esters and uses thereof” (Bar-ILAn University, priority 1996, dated 2000).

The test system of test [1] is Au565 breast carcinoma cells. The test is described as follows: Differentiation by lipid staining. It is filed as cell-based, human. The following applies: 10 μM. The text has this: Lipid staining and/or immunochemical staining of casein can be used as a marker for cellular differentiation of breast cancer cells (Bacus et al., Md. Carcin. 3:350-362, 1990). Casein detection can be done by histochemical staining of breast cancer cells using a human antibody to human casein as described by Cheung et al., J. Clin. Invest. 75:1722-1728,which is incorporated by reference in its entirety.
In the case of the human breast carcinoma cell line Au565, 100%. Of the cells treated with 10 μM GOMB were positive for lipid staining whereas less than 1% of cells treated with the same concentration of AB were positive for lipid staining.

For test [2], the system named is P3HR-1 EBV-positive lymphoma cells. The test is described as follows: [3H]-thymidine incorporation in EBV-positive lymphoma cells. To be noted: combination with GC, 72 hours. It is filed as cell-based, human. The procedure:
The effect of GOMB to AB was compared on EBV virus-associated tumors. EBV-positive cells from P3HR-1, a human lymphoma cell line, were incubated in growth medium with the specified concentration of GOMB, AB, ganciclovir (GC), or combination of these, for 72 hours, seeded in 96-well plates and pulsed with 1 μCi [^3 H]-thymidine/well during the last 16 hours of exposure to the compounds. Cells were harvested with a cell harvester, using glass microfiber filters. The incorporation of [^3 H]-thymidine was determined by retention of the acid insoluble fraction on filters and is expressed as CPM.

The test system of the next test is SMS-KAN (Neuroblastoma). The test can be described thus: Clonogenicity of established tumor cell lines (soft agar). It is filed as cell-based, human. To be noted: Homo sapiens; SMS-KAN clonogenicity. The procedure: (§1) Inhibition of tumor growth was tested using cell lines as follows: […]
In a further test the test system is NBAS-5 (Neuroblastoma). The test is described as above. It is filed as cell-based, human. The following applies: Homo sapiens; NBAS-5 clonogenicity. The procedure: as §1
For the next test, the system named is IMR-32 (Neuroblastoma). The description is as above. It is filed as cell-based, human. The following applies: Homo sapiens; IMR-32 clonogenicity. Here is the method: as §1
The next test relates to NBL-W-N (Neuroblastoma). The description is as above. It is filed as cell-based, human. The following applies: Homo sapiens; NBL-W-N clonogenicity. Here is the method: as §1
For test [3], the system named is MCF7-WT (Breast Carcinoma). Described as above. It is filed as cell-based, human. To be noted: Homo sapiens; MCF7-WT clonogenicity. The procedure:
as §1

The next test deals with SK-N-SH (Neuroblastoma). The description is as above. It is filed as cell-based, human. To be noted: Homo sapiens; SK-N-SH clonogenicity. Here is the method: as §1
The next test has as its system K562 (Erytholeukemia). Described as above. To be noted: Homo sapiens; K562 clonogenicity. It is filed as cell-based, human. The procedure:
as §1

The test system of another test is PC3 (Prostate Carcinoma). The description is as above. The following applies: Homo sapiens; PC3 clonogenicity. It is filed as cell-based, human. Here is the method: as §1
The test system of test [4] is MCF7-40F (Breast Carcinoma). Described as above. It is filed as cell-based, human. The following applies: Homo sapiens; MCF7-40F clonogenicity. Here is the method:
as §1

In another test the test system is LA1-5S (Neuroblastoma). The test is described as above. It is filed as cell-based, human. To be noted: Homo sapiens; LA1-5S clonogenicity. Here is the method:
as §1

A further test has as its system SK-N-MC (Neuroblastoma). The test is described as above. It is filed as cell-based, human. To be noted: Homo sapiens; SK-N-MC clonogenicity. Here is the method: as §1
The subject of test [5] is LNCaP (Prostate Carcinoma). The description is as above. It is filed as cell-based, human. The following applies: Homo sapiens; LNCaP clonogenicity. The procedure:
as §1

Test [6] relates to K562 cells (HbF). The test is described as follows: Hb-containing K562 cells by benzidine staining. It is filed as cell-based, human. The following applies: 0.05 mM, 5 days. The procedure:
Hb Measurement: HB was measured by benzidine staining of K562 cells after 5 days exposure to GOMB or AB according to the procedure of Fibach et al. (1989) [full cite]. Quantitative measurement of HbF in K562 culture or human erythroid cultures was determined by ion-exchange high pressure liquid chromatography (HPLC) as described by Fibach et al., Blood 81:1630-1635, 1993.
(§2) K562 cells: K562 is an erthroblast cell line that develops some properties of erythroid, megakaryocyte or monocyte cells, depending on the specific stimulus, when induced by different chemicals. K562 cells were grown in RPMI with 10% FCS, supplemented with 2 mM glutamine. Cells were incubated at 37° C. in a humidified, 5% CO2 incubator.

Test [7] concerns established tumor cell lines. The test is described as follows: Clonogenicity of established tumor cell lines, all lines together. It is filed as cell-based, human. To be noted: in words. Here is the method:
as §1

The next test deals with MCF-7 cells (WAF). The test is described as follows: Apoptosis in breast cancer cells, staining with WAF antibody / Western blot. To be noted: 100 μM. It is filed as cell-based, human. Here is the method: Induction of apoptosis by COMB and AB in MCF-7 cells was evaluated by staining cells with the WAF antibody and by Western blot analysis as described by Bacus et al., 1996, Oncogene 12:2535-2547.

Test [8] has as its system 53 primary tumor cell lines. The test can be described thus: Inhibition of clonogenicity of primary tumor cells. It is filed as cell-based, human. The following applies: Homo sapiens. The text has this: The tested tumor cells were from 11 non-small cell lung carcinomas, 10 breast carcinomas, 10 gastric carcinomas, 10 ovarian carcinomas, and 10 CNS tumors.
Test [9] relates to β-thalassemia and sickle-cell anemia. To be noted: β-globin disorders; cited from earlier work.
Another test concerns HL-60 cells. The test is described as follows: SRB cell proliferation assay. It is filed as cell-based. The following applies: Homo sapiens; HL-60, SRB. Here is the method: (§3) The inhibition of cell proliferation was measured in the indicated cancer cell lines using the sulforhoamine B (SRB) assay as described by Monks et al., J. Natl. Can. Inst. […] The SRB assay is used to screen for anti-cancer drugs.

A further test concerns HT-29 cells. The test is described as follows: SRB cell proliferation assay. To be noted: Homo sapiens; HT-29, SRB. It is filed as cell-based. Here is the method:
as §3

Another test relates to CFPAC cells. The test can be described thus: SRB cell proliferation assay. It is filed as cell-based. Here is the method: as §3
The subject of another test is MCF7 cells. The test can be described thus: SRB cell proliferation assay. It is filed as cell-based. The following applies: Homo sapiens. Here is the method:
as §3

Test [10] relates to K562 cells (HbF). The test is described as follows: HbF synthesis in K562 cells (ion-exchange HPLC). It is filed as cell-based, human. Here is the method:
as §2

For test [11], the system named is c-myc in HL-60 promyelocytic leukemia. The following applies: cited from earlier work.
The subject of a further test is cancer. The following applies: cancer patients; cited from earlier work.
A further test relates to neoplastic cells. To be noted: in vitro; cited from earlier work.
In test [12] the test system is colon carcinoma, leukemia and retinoblastoma cell lines. The following applies: in vitro; cited from earlier work.

pIC50: −log10 of the molar value.

Take `CCCC(=O)O` [AB, arginine butyrate, reference compound]: the “cells positive for lipid staining” value in test [1] is listed as “less than 1%”. Also, the “interaction with ganciclovir (GC) in inhibiting proliferation” value in [2] is listed as “interact synergistically with GC”. In addition, the pIC50 in the test on SMS-KAN (Neuroblastoma) is 2.94; with NBAS-5 (Neuroblastoma), 3.05; in the test with IMR-32 (Neuroblastoma) it was 3.06; in the test with NBL-W-N (Neuroblastoma), 3.31; in [3] it was 2.82; with SK-N-SH (Neuroblastoma) it was 3.00. For the same compound, the pIC50 is 3.11 in the test on K562 (Erytholeukemia); 3.65 with PC3 (Prostate Carcinoma); 3.09 in [4]; 2.79 with LA1-5S (Neuroblastoma); 3.67 in the test on SK-N-MC (Neuroblastoma); 3.11 in test [5]. Moreover, the pIC50 is 2.78 with HL-60 cells, < 2.40 with HT-29 cells, < 2.40 in the test on CFPAC cells and < 2.40 in the test on MCF7 cells. Moreover, the IC90 in the test on SMS-KAN (Neuroblastoma) came to 2080 µM; with NBAS-5 (Neuroblastoma) it was 13000 µM; in the test with IMR-32 (Neuroblastoma), 3570 µM; in the test with NBL-W-N (Neuroblastoma), 3070 µM; in test [3], 9470 µM; with SK-N-SH (Neuroblastoma), 3400 µM. The IC90 in test [4] stood at 3180 µM; in the test on LA1-5S (Neuroblastoma) it was 2680 µM; in the test on SK-N-MC (Neuroblastoma) it was 1310 µM; in test [5], 6700 µM; in [8], 2120 µM; in the test on HL-60 cells, 3460 µM. The IC90 in the test on HT-29 cells, in the test with CFPAC cells and in the test with MCF7 cells was > 4000 µM each time. Further, the “Percentage K562 Cells Containing HbF” value in the test with K562 cells (HbF) [6] is 3 ± 2%. Besides, the “inhibition of cell proliferation, dose dependence” value in test [7] is on record as “inhibit cell proliferation in a dose-dependent manner”. In addition, the “% Cells Expressing WAF” value with MCF-7 cells (WAF) turned out to be 23%. The clinical efficacy entry in [9] was “moderate efficacy”. Besides, the “HbF Synthesis in K562 Cells” value with K562 cells (HbF) [10] (0.01 mM) amounted to 0.96 µg/mL; with K562 cells (HbF) [10] (0.05 mM), 0.95 µg/mL; in the test with K562 cells (HbF) [10] (0.10 mM), 1.8 µg/mL; in the test with K562 cells (HbF) [10] (0.50 mM) it was 3.69 µg/mL.

On to `CCCC(=O)OCOC(=O)C(C)(C)C` [AN-9, pivaloyloxymethyl butyrate], for which the pIC50 is 4.41 in the test on HL-60 cells, 3.84 in the test with HT-29 cells, 4.25 in the test on CFPAC cells and 3.74 in the test on MCF7 cells. Moreover, the IC90 in the test on HL-60 cells turned out to be 59.9 µM; with HT-29 cells, 231 µM; in the test with CFPAC cells it was 89.8 µM; in the test on MCF7 cells, 238 µM.

On to `CCCC(=O)O` [BA, Butyric acid], for which the expression of c-myc entry in [11] was “decrease in the expression”. For the same compound, the clinical antitumor efficacy result with cancer is listed as “minimal or transient efficacy”. The “differentiating and antiproliferative activity” value in the test on neoplastic cells is “potent differentiating and antiproliferative agent in a wide spectra of neoplastic cells”.

Take `CCCC(=O)[O-].[Na+]` [SB, sodium butyrate]: in test [12], the apoptosis entry is on record as “produce apoptosis”.
